Experimental data reported in patent US12291502B2, “Topoisomerase II-alpha inhibitors and methods of treating cancer using the same” (The Regents of the University of Colorado, priority 2019, dated 2025).

Test system: SW620 tumor organoids
Assay: 3D invasion assay
Format: cell-based
Settings: SW620 tumor organoids treated 72 hours, viable cells incubated further 72 hours
Description: 3D Invasion Assay. SW620 cells were transduced with NucLight®-Red virus (Essen BioSciences, MI) and selected with Zeocin (200 μg/mL). Transduced cells were cultured in RPMI-1640 media supplemented with 5% FBS and allowed to grow in a […] until ˜80% confluent. Afterwards, cells were plated in a CellCarrier Spheroid Ultra-Low Attachment 96-well plate (PerkinElmer, MA) at 5,000 cells/well in 2% Matrigel (Corning, NY) and allowed to grow for 72 hours. Cells were then treated with 10 μM of analogs […] and cultured for an additional 72 hours. Organoids were then collected, half a 96-well plate per treatment condition, spun down at 500 g, washed with PBS, and dissociated with 500 μL of Cultrex® Organoid Harvesting Solution (Trevigen, MD) for 30 min in ice with moderate mixing. Single cells were then spun down at 500 g, the supernatant was discarded, cells were washed with PBS, re-centrifuged, and resuspended in RPMI-1640 media supplemented with 0.5% FBS. Live cells were counted and then plated in an Incucyte® ClearView 96-well cell migration plate (Essen BioSciences, MI) in a 1:1 ratio of Matrigel (Corning, NY) and RPMI-1640 media supplemented with 0.5% FBS and 1% penicillin/streptomycin at 5,000 cells/well. […] Cell invasion was monitored using the Incucyte® ZOOM imaging system (Essen BioSciences, MI) for bottom fluorescence of invading cells per manufacturer's recommendations. […]

In the case of `CC(=O)Nc1ccc2c(-c3cc(F)ccc3O)ccnc2c1O` [Analog 7], the “invasive potential, in words” value is reported as “inhibit the invasive potential”.
